The text below walks through data of article PMC5635026, “Homo-PROTACs: bivalent small-molecule dimerizers of the VHL E3 ubiquitin ligase to induce self-degradation” (Nature Communications, 2017).

Each structure is given as a SMILES string. Like-named read-outs stand apart in the source and are kept apart here.

Test [1] deals with T1, pVHL19 (Homo sapiens, UniProt P40337). Put plainly: Immunoblot of pVHL19 protein level in HeLa cells after compound treatment. Format: cell-based. Also noted: endogenous in cells; host or cells: HeLa. The settings on record: 10 h, read-out: pVHL19 band quantification normalized to 0.1% DMSO. Here is the method:
(§1) Cell culture. Human cell lines HeLa, U2OS and HEK 293, purchased from ATCC, were propagated in DMEM supplemented with 10% fetal bovine serum (FBS), L- glutamine, 100 μg ml^−1 of penicillin/streptomycin at 37 °C and 5% CO2. Cells were maintained for no more than 30 passages. All cell lines were routinely tested for mycoplasma contamination using MycoAlert kit from Lonza. For compound treatment experiments, cells were transferred in six-well plates with either 3 × 10^5 or 5 × 10^5 cells per well in 2 ml of media. At 80% confluence, cells were treated with compounds at the desired concentration, reaching final DMSO concentration of 0.1% v/v. Cells were incubated at 37 °C and 5% CO2 for the desired time before harvesting.
(§2) Immunoblotting. Cells were lysed in lysis buffer (20 mM Tris pH 8, 150 mM NaCl, 1% Triton × 100) and a protease inhibitor cocktail (Roche) per 10 ml buffer. For protein extracts, the dishes were placed on ice. The media was aspirated and the tissue layer washed twice with ice-cold phosphate buffer saline (PBS). Lysis buffer (120 μl) was added and the cells detached from the surface with a cell scraper. After removal of the insoluble fraction by centrifugation, the protein concentration of the supernatant was determined by Pierce™ Coomassie (Bradford) Protein Assay Kit. Protein extracts were fractionated by SDS-PAGE on 4–12% Tris-Acetate NuPage® Novex® (Life Technologies) polyacrylamide gels and transferred to a nitrocellulose membrane using wet transfer. The membrane was then blocked with 5 % w/v Bovine serum albumin (BSA) in Tris-buffered saline (TBS) with 0.1% w/v Tween-20. For detecting proteins the following primary antibodies in the given concentrations were used: anti-β-Actin (Cell Signaling Technology, 4970S, 13E5) 1:2000, anti-VHL (Cell Signaling Technology, #68547) 1:1000, anti-Hif-1α (BD Biosciences, 610959, clone 54) 1:1,000, anti-hydroxy-HIF-1α (Hyp564) (Cell Signaling Techonology; #3434) 1:1,000, anti-PHD2 (Bethyl Laboratories; A300-322A) 1:1,000, anti-PHD3 (Bethyl Laboratories; A300-327A) 1:1000, anti-CRBN (Proteintech; 11435-1-AP) 1:1,000. Following incubation with a horseradish peroxidase-conjugated secondary antibody (Cell Signaling Technology), the signal was developed using enhanced chemiluminescence (ECL) Western Blotting Detection Kit (Amersham) on Amersham Hyperfilm ECL film (Amersham). Band quantification was performed using ImageJ software and reported as relative amount as ratio of the each protein band relative to the lane’s loading control. The values obtained were then normalized to 0.1% DMSO vehicle control. See Supplementary Fig. 12 for full-scanned images of western-blots shown in the main text figures.
Target sequence in this assay (P40337 54-213): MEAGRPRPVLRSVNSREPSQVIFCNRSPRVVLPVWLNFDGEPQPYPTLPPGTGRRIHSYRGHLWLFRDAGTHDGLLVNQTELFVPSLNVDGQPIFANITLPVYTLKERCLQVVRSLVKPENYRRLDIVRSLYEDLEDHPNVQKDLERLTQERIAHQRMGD
Target sequence in this assay (Q15369 whole entry partner): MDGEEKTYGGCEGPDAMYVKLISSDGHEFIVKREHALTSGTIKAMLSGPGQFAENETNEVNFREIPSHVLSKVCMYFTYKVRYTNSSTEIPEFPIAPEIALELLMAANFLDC
Target sequence in this assay (Q15370 whole entry partner): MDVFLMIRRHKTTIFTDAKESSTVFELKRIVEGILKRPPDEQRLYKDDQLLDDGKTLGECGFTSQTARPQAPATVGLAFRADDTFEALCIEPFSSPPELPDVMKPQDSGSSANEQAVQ

Test [2] addresses T2, pVHL30 (Homo sapiens, UniProt P40337). Put plainly: Immunoblot of pVHL30 protein level in HeLa cells after compound treatment. The settings on record: 10 h; for remaining activity at 1 µM: DMSO = 100, Fig. 4a; for remaining activity at 1 µM / remaining pVHL30 protein level at 1 µM: read-out: pVHL30 band quantification normalized to 0.1% DMSO; for remaining activity at 1 µM / depletion of target protein (pVHL30 / VHL): 1 µM. It is filed as cell-based. Set-up: endogenous in cells; host or cells: HeLa. Here is the method:
as §1, §2
Target sequence in this assay (P40337 whole entry): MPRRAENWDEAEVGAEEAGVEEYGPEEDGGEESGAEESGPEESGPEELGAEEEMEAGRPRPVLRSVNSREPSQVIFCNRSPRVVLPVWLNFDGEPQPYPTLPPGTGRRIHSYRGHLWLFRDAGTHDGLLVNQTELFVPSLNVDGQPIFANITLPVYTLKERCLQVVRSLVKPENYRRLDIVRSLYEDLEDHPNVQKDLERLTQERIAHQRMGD

In test [3] the target is T1, pVHL19. Put plainly: Isothermal titration calorimetry (ITC) against VCB complex with short VHL isoform (V19CB). Format: binding. Also noted: made in house. The settings on record: ITC. Here is the method: (§3) Protein expression and purification. Human proteins VHL (UniProt accession number: P40337), ElonginC (Q15369), and ElonginB (Q15370) were used for all protein expression. The short-isoform-containing VCB complex (V19CB) was expressed, purified and stored as described previously. For expression of the long-isoform-containing VCB complex (V30CB), N-terminally His6-tagged VHL (1–213), ElonginC (17–112) and ElonginB (1–104) were co-expressed in Escherichia coli BL21(DE3) at 20 °C for 18 h using 0.5 mM isopropyl β-D-1-thiogalactopyranoside (IPTG). E. coli cells were resuspended in binding buffer (50 mM HEPES, pH 8.0, 500 mM NaCl, 10 mM imidazole and 5 mM β-mercaptoethanol), lysed using a pressure cell homogenizer (Stansted Fluid Power), and lysate clarified by centrifugation. The supernatant was loaded onto a HisTrap FF affinity column (GE Healthcare) equilibrated with binding buffer, and bound protein was eluted using an imidazole gradient. The His6 tag was removed using thrombin protease (Sigma), and the untagged complex was dialyzed into binding buffer. V30CB was then loaded onto the HisTrap FF column a second time, allowing impurities to bind as the complex eluted without binding. The flow-through was dialyzed using a low-salt buffer (20 mM HEPES, pH 8.0, 25 mM NaCl and 1 mM DTT) and then loaded onto a Resource Q anion exchange column (GE Healthcare); bound protein was eluted across a linear NaCl gradient. V30CB was then additionally purified by size-exclusion chromatography using a Superdex-75 16/600 column (GE Healthcare) equilibrated with 20 mM HEPES, pH 7.5, 100 mM sodium chloride and 1 mM TCEP. All chromatography purification steps were performed using Äkta FPLC purification systems (GE Healthcare).
(§4) Isothermal titration calorimetry (ITC). Titrations were performed on an ITC200 micro-calorimeter (GE Healthcare). […] The final DMSO concentration was 0.15% v/v. VCB protein experiments were carried out in a buffer containing 20 mM Bis-tris propane, 150 mM NaCl, 1 mM TCEP, 0.15% v/v DMSO, pH 7.4. The titrations consisted of 19 injections of 2 µL compounds solution (150 µM, in the syringe) at a rate of 0.5 µl s^−1 at 120 s time intervals into the VCB protein solution (20 µM, in the cell). An initial injection of compound solution (0.4 µL) was made and discarded during data analysis. All experiments were performed at 25 °C, whilst stirring the syringe at 600 rpm. The data were fitted to a single binding site model to obtain the stoichiometry n, the dissociation constant K d and the enthalpy of binding ΔH using the Microcal LLC ITC200 Origin software provided by the manufacturer.
Target sequence in this assay (P40337 54-213): as the sequence (P40337 54-213) above
Target sequence in this assay (Q15369 17-112 partner limits assumed): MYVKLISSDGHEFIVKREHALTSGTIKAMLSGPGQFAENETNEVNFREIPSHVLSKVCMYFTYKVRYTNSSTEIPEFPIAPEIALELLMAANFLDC
Target sequence in this assay (Q15370 1-104 partner limits assumed): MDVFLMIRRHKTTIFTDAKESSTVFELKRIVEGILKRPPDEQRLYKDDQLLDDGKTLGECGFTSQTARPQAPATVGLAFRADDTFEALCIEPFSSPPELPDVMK

The target of test [4] is T3, V19CB (Homo sapiens, UniProt P40337).
T3 construct: made in house
Put plainly: Size-exclusion chromatography (SEC) of complex formation with V19CB. It is filed as binding. Particulars: VCB 50 µM, compound 30 µM. How it is done: as §3
Size-exclusion chromatography (SEC). SEC experiments were carried out in a ÄKTA pure system (GE Healthcare) at room temperature. The oligomeric state of the VCB complex in solution was analyzed by gel filtration in a buffer containing 20 mM Bis-Tris (pH 7), 150 mM NaCl and 1 mM 1,4-dithiothreitol (DTT) using a Superdex 200 Increase 10/300 GL column (GE Healthcare) calibrated with globular proteins of known molecular weight (GE Healthcare, 28-4038-41/42). […] Sample volume for each injection was 200 µl, and the flow rate was 0.5 ml min^−1. Peak elution was monitored using ultraviolet absorbance at 280 nm.

Test [5] deals with T2, pVHL30. Put plainly: Isothermal titration calorimetry (ITC) against VCB complex with long VHL isoform (V30CB). Format: binding. Particulars: 25 °C. Set-up: N-terminally His6-tagged VHL (1–213), ElonginC (17–112) and ElonginB (1–104) were co-expressed; His6 (N, cleaved yes); made in house; host or cells: Escherichia coli BL21(DE3). How it is done:
as §3, §4
Target sequence in this assay (P40337 whole entry): as the sequence (P40337 whole entry) above
Target sequence in this assay (Q15369 17-112 partner limits assumed): as the sequence (Q15369 17-112 partner limits assumed) above
Target sequence in this assay (Q15370 1-104 partner limits assumed): as the sequence (Q15370 1-104 partner limits assumed) above

T3 sequence (P40337 54-213): as the sequence (P40337 54-213) above
T3 sequence (Q15369 17-112 partner limits assumed): as the sequence (Q15369 17-112 partner limits assumed) above
T3 sequence (Q15370 1-104 partner limits assumed): as the sequence (Q15370 1-104 partner limits assumed) above

Take `CC(=O)N[C@H](C(=O)N1C[C@H](O)C[C@H]1C(=O)NCc1ccc(-c2scnc2C)cc1OCCOCCOCCOCCOCCOCC(=O)N[C@H](C(=O)N1C[C@H](O)C[C@H]1C(=O)NCc1ccc(-c2scnc2C)cc1)C(C)(C)C)C(C)(C)C` [CMP112]: the remaining activity at 1 µM was 89% in test [1] (1 µM, DMSO = 100, Fig. 4a) and 110% in test [2].

As for `Cc1ncsc1-c1ccc(CNC(=O)[C@@H]2C[C@@H](O)CN2C(=O)[C@@H](NC(=O)C2(C#N)CC2)C(C)(C)C)c(OCCOCCOCCOCCOCCOc2cc(-c3scnc3C)ccc2CNC(=O)[C@@H]2C[C@@H](O)CN2C(=O)[C@@H](NC(=O)C2(C#N)CC2)C(C)(C)C)c1` [CMP108], the remaining activity at 1 µM in test [1] (1 µM, DMSO = 100, Fig. 4a) is 97%; in test [2] it was 126%.

As to `Cc1ncsc1-c1ccc(CNC(=O)[C@@H]2C[C@H](O)CN2C(=O)[C@@H](NC(=O)COCCOCCOCCOCCOCCOCC(=O)N[C@H](C(=O)N2C[C@@H](O)C[C@H]2C(=O)NCc2ccc(-c3scnc3C)cc2)C(C)(C)C)C(C)(C)C)cc1` [CMP98, N ^1 ,N ^20-bis((S)-1-((2S,4S)-4-hydroxy-2-((4-(4-methylthiazol-5-yl)benzyl)carbamoyl)pyrrolidin-1-yl)-3,3-dimethyl-1-oxobutan-2-yl)-3,6,9,12,15,18-hexaoxaicosanediamide], the remaining activity at 1 µM in test [1] (1 µM, DMSO = 100, Fig. 4a) amounted to 104%. Also, the “binding to VCB by ITC” value in test [3] (qualitative) is reported as “binding was not detected”. The “shift of VCB peak / ternary complex formation in SEC” value in test [4] was “No shift”. In test [2], the “depletion of target protein (pVHL30 / VHL)” value is “unable to induce degradation of VHL” and the remaining activity at 1 µM was found to be 108%.

With `Cc1ncsc1-c1ccc(CNC(=O)[C@@H]2C[C@@H](O)CN2C(=O)[C@@H](NC(=O)COCCOCCOCCOCCOCCOc2cc(-c3scnc3C)ccc2CNC(=O)[C@@H]2C[C@@H](O)CN2C(=O)[C@@H](NC(=O)C2(C#N)CC2)C(C)(C)C)C(C)(C)C)cc1` [CMP113], the remaining activity at 1 µM in test [1] stood at 111%. In addition, in test [2], the remaining pVHL30 protein level at 1 µM is 121%.

In the case of `Cc1ncsc1-c1ccc(CNC(=O)[C@H]2C[C@@H](O)CN2C(=O)[C@H](NC(=O)COCCOCCOCCOCCOCC(=O)N[C@H](C(=O)N2C[C@H](O)C[C@H]2C(=O)NCc2ccc(-c3scnc3C)cc2)C(C)(C)C)C(C)(C)C)cc1` [CMP99, N ^1-((R)-1-((2R,4R)-4-hydroxy-2-((4-(4-methylthiazol-5-yl)benzyl)carbamoyl)pyrrolidin-1-yl)-3,3-dimethyl-1-oxobutan-2-yl)-N ^17-((S)-1-((2S,4R)-4-hydroxy-2-((4-(4-methylthiazol-5-yl)benzyl)carbamoyl)pyrrolidin-1-yl)-3,3-dimethyl-1-oxobutan-2-yl)-3,6,9,12,15-pentaoxaheptadecanediamide], the remaining activity at 1 µM in test [1] (1 µM, DMSO = 100, Fig. 4a) came out at 104%; in test [2] it was 62%. Moreover, the ΔG entry in test [5] (pVHL30) is given as “–9.51 ± 0.05 kcal mol^−1”; in test [3] (25 °C, pVHL19) it was “–9.33 ± 0.06 kcal mol^−1”. In addition, the ΔH result is “–5.19 ± 0.03 kcal mol^−1” in test [5] (pVHL30) and “–6.23 ± 0.05 kcal mol^−1” in test [3] (25 °C, pVHL19). Moreover, the “−TΔS” value in test [5] (pVHL30) is “–4.3 ± 0.1 kcal mol^−1”; in test [3] (25 °C, pVHL19) it was “–3.1 ± 0.7 kcal mol^−1”. Besides, the Kd in test [5] (pVHL30 (V30CB)) was 106 ± 10 nM; in test [3] (25 °C, pVHL19 (V19CB)), 146 ± 2 nM. Besides, the n amounted to 1.050 ± 0.004 in test [5] (stoichiometry of binding, pVHL30 (V30CB)) and 0.964 ± 0.005 in test [3] (25 °C, stoichiometry of binding, pVHL19 (V19CB)). Also, in test [4], the “elution volume of small peak in SEC” value turned out to be 13.5 mL. Further, in test [4], the “shift of VCB peak / ternary complex formation in SEC” value is “No shift”. Further, the “depletion of target protein (pVHL30 / VHL)” value in test [2] is reported as “unable to induce degradation of VHL”.

Take `CC(=O)N[C@H](C(=O)N1C[C@H](O)C[C@H]1C(=O)NCc1ccc(-c2scnc2C)cc1OCCOCCOCCOCCOCCOc1cc(-c2scnc2C)ccc1CNC(=O)[C@@H]1C[C@@H](O)CN1C(=O)[C@@H](NC(C)=O)C(C)(C)C)C(C)(C)C` [CMP106]: the remaining activity at 1 µM in test [1] was determined as 93%. For the same molecule, the remaining pVHL30 protein level at 1 µM in test [2] was 114%.
